Experimental data from US6468763B1, “Optical detection of transmembrane potential changes” (Caliper Technologies Corp., priority 1999, dated 2002).

System: CHO cells
Assay: Voltage dependent quenching of WGA-F1 fluorescence in response to changes in the potassium diffusion potential
Format: cell-based, Chinese hamster
Details: excitation 475 nm
Procedure: Crystal violet was purchased from Fischer Scientific. Fluorescein labeled wheat germ agglutinin (WGA-F1) was purchased from Sigma Chemical. Valinomycin was purchased from Sigma Chemical Chinese hamster ovary cells (CHO) were grown in Ham's F12 media (Irvine Scientific) with 10% fetal bovine serum and 1% penicillin/streptomycin. Adherent cells were harvested using phosphate buffered saline with 0.5 mM EDTA (Irvine Scientific). Cells were washed in Hank's buffered saline solution (HBSS) containing 20 mM Hepes at pH 7.2. Cells suspended in HBSS at a concentration of 10^6 cells/ml were stained with 2 μg/ml WGA-F1 and 40 nM crystal violet for 15 minutes at room temperature. The cells were washed with HBSS and suspended in HBSS containing 1 μM sulforhodamine 101 (Sigma Chemical). Sulforhodamine 101 was used as a voltage insensitive volume marker to account for possible dilution artifacts. […] Fluorescence measurements on cell suspensions were made at room temperature using a FluoroMax-2 fluorometer (Spex). […]
The cationic quencher will redistribute from the intracellular side of the plasma membrane to the extracellular side as the cell is depolarized. […] The fluorescein fluorescence in the depolarized cells is decreased by 20% compared to the hyperpolarized cells. No difference is seen in sulforhodamine 101 fluorescence.
Octadecyl rhodamine B (R18) was purchased from Molecular Probes. […] Fluorescence measurements on cell suspensions were made at room temperature using a FluoroMax-2 fluorometer (Spex). […]
The cationic quencher redistributes from the intracellular side of the plasma membrane to the extracellular side as the cell is depolarized. […] The fluorescein fluorescence in the depolarized cells is decreased by 3% and the rhodamine fluorescence is increased by 2% compared to the hyperpolarized cells. The observed changes in fluorescein and R18 fluorescence are consistent with the translocation-dependent changes in fluorescence resonance energy transfer.

[1] = CHO cells stained with 2 μg/ml WGA-F1 and 500 nM R18, high potassium vs high sodium buffer, valinomycin

CCCCCCCCCCCCCCCCCCOC(=O)c1ccccc1-c1c2ccc(=[N+](CC)CC)cc-2oc2cc(N(CC)CC)ccc12.[Cl-] [R18, Octadecyl rhodamine B]
decrease of fluorescein fluorescence in the depolarized cells compared to the hyperpolarized cells [1]: 3% | increase of rhodamine fluorescence (sensitized emission) in the depolarized cells compared to the hyperpolarized cells [1]: 2%

CN(C)c1ccc(C(=C2C=CC(=[N+](C)C)C=C2)c2ccc(N(C)C)cc2)cc1 [crystal violet]
decrease of fluorescein fluorescence in the depolarized cells compared to the hyperpolarized cells (CHO cells stained with 2 μg/ml WGA-F1 and 40 nM crystal violet, high potassium buffer (126 mM K+) vs high sodium buffer (6 mM K+), 5 μM valinomycin): 20%
